{"source": "patent US10888556B2", "about": "“Method for treating myopia with an nsaid and an anti-muscarinic agent” (KAOHSIUNG CHANG GUNG MEMORIAL HOSPITAL, priority 2013, dated 2021)", "molecules": {"B1": {"name": "TGF-β2: Transforming growth factor beta 2 (SEQ ID NO:5), ocular chondrogenic protein used to induce α-SMA and Col2 in SSPC (protein, listed as Homo sapiens)", "chain": "MHYCVLSAFLILHLVTVALSLSTCSTLDMDQFMRKRIEAIRGQILSKLKLTSPPEDYPEPEEVPPEVISIYNSTRDLLQEKASRRAAACERERSDEEYYAKEVYKIDMPPFFPSEAIPPTFYRPYFRIVRFDVSAMEKNASNLVKAEFRVFRLQNPKARVPEQRIELYQILKSKDLTSPTQRYIDSKVVKTRAEGEWLSFDVTDAVHEWLHHKDRNLGFKISLHCPCCTFVPSNNYIIPNKSEELEARFAGIDGTSTYTSGDQKTIKSTRKKNSGKTPHLLLMLLPSYRLESQQTNRRKKRALDAAYCFRNVQDNCCLRPLYIDFKRDLGWKWIHEPKGYNANFCAGACPYLWSSDTQHSRVLSLYNTINPEASASPCCVSQDLEPLTILYYIGKTPKIEQLSNMIVKSCKCS", "modifications": "Transforming growth factor beta-2 (TGF-beta-2)"}}, "key": {"human SSPC": {"system": "human SSPC", "experiment": "Col2 and α-SMA expression in human SSPC treated with TGF-β2 (western blot)", "assay_type": "cell-based", "conditions": "in the presence of TGF-β2 (10 ng/ml), 1 mM atropine, 5 mM ketorolac, 1 mM diclofenac", "procedure": "Different concentrations of TGF-β2 were added into 12-wells of SSPCs. After 24 hrs, the images of SSPC morphology were recorded. The total RNA was extracted for further analysis. A chamber slide culture for the immunofluorescence study was performed under the same condition.\nThe total protein from the sclera was extract by using RIPA protein extraction buffer. After homogenization of scleral tissue, the sample was centrifuged and the supernatant was collected. The protein concentration of each sample was measured using a BCA™ protein Assay Kit (Bio-Rad). Scleral protein samples were standardized and electrophoresed on 10% SDS-PAGE gel, then transferred to a polyvinylidene fluoride transfer membrane (Immun-Blot PVDF Membrane, BIO-RAD) at 21 V for 1 h. Membranes were blocked for 1 h at room temperature with 5% dry milk in PBS with 0.1% Tween and incubated at 4° C. overnight with primary antibodies. Membranes were washed and incubated with 1:10,000 goat anti-mouse or anti-rabbit IgG antibodies conjugated to horseradish peroxidase (Santa Cruz) for 1 h at room temperature and washed again. Membranes were developed by chemiluminescence with the reagent Lumigen TMA-6 (GE Healthcare UK limited, Buckinghumshire, UK) and images were captured with the LAS-4000 imaging system (Fujifilm, Tokyo, Japan). Protein bands were quantified using ImageJ software.\nAn in vitro study examining the effect of an anti-muscarinic agent and NSAID on Col2 and α-SMA expressions was performed using human SSPC."}, "myopic patient": {"system": "myopic patient", "experiment": "Treating a myopia subject with NSAID (ketorolac ophthalmic solution)", "assay_type": "in vivo, human", "conditions": "one patient, both eyes, after three months of about 0.5% ketorolac, one drop at night", "procedure": "The dose of ketorolac was about 0.5% weight ketorolac per unit dose (about 0.05 to 0.5 ml) and the affected eye was given one drop (about 0.05 to 0.5 ml) of ketorolac ophthalmic solution at night."}, "SSPCs": {"system": "SSPCs", "experiment": "α-SMA and Col2 expression in SSPCs treated with TGF-β2, atropine/ketorolac combination", "assay_type": "cell-based, mouse", "conditions": "in the presence of TGF-β2 10 ng/ml, 0.5 mM atropine, 2.5 mM ketorolac, or combination", "protocol": "In brief, sclera from the mouse was obtained and was carefully dissected away from limbus and optic disc under a dissection microscope. After retina and choroid tissues were removed, the scleral tissue was cut into small pieces and digested with 1.5 mg/ml collagenase type I (Worthington Biochemical, Lakewood, USA) and 2 mg/ml of dispase (Roche, Basel, Switzerland) in PBS for 1 h at 37° C. to release individual cells. Individual cells were cultured in α-MEM (Invitrogen, Carlsbad, USA), supplemented with 20% lot-selected FBS (Equitech-Bio, Kerrville, USA), glutamine, penicillin/streptomycin and 100 mM 2-mercaptoethanol (Invitrogen) for 8 to 10 days at 5% CO2, 37° C.\nTotal RNA from SSPCs or the choroid tissue in each eye was isolated using Trizol (Invitrogen, Carlsbad, Calif.) accordingly to the manufacture's protocol. qRT-PCR analysis was carried out using the iScript one-step RT-PCR kit with SYBR Green (Bio-Rad, Hercules, USA) on an ABI PRISM 7900 HT sequence detection system (Applied Biosystems, Foster City, USA), according to the manufacturer's instructions. […] Ct values of the control gene were subtracted from those of α-SMA and Col2 to provide a semiquantitative analysis, and fold change relative to no treatment was assessed. […]"}, "TNF-α": {"system": "TNF-α", "experiment": "Expression of inflammation markers in choroids of FDM mice (real-time PCR)", "assay_type": "in vivo", "conditions": "FDM eye of mice, one ketorolac eye drop once a day", "procedure": "(§1) Total RNA from SSPCs or the choroid tissue in each eye was isolated using Trizol (Invitrogen, Carlsbad, Calif.) accordingly to the manufacture's protocol. qRT-PCR analysis was carried out using the iScript one-step RT-PCR kit with SYBR Green (Bio-Rad, Hercules, USA) on an ABI PRISM 7900 HT sequence detection system (Applied Biosystems, Foster City, USA), according to the manufacturer's instructions. […] Ct values of the control gene were subtracted from those of α-SMA and Col2 to provide a semiquantitative analysis, and fold change relative to no treatment was assessed.\nOn the day of the experiment (postnatal day [P] 21˜24), C57BL/6J mice were anesthetized by intraperitoneal injection of ketamine (90 mg/kg) and xylazine (10 mg/kg), and the diffuser eye patches were sutured to the skin around the right eye whereas the left eye served as a control. […] The mice were recovered and monitored on a warming pad until they were fully mobile. […]\nAn in vivo study evaluating the expression of inflammation markers in the choroid was evaluated using FDM Mice. […]"}, "SSPC": {"system": "SSPC", "experiment": "Effect of TGF-β2 treatment on α-SMA and Col2 gene expression in SSPC (quantitative Real Time-PCR)", "assay_type": "cell-based, mouse", "conditions": "0.1 to 10 ng/ml TGF-β2 for 24 hrs, dose dependent", "procedure": "The SSPCs were isolated and cultured as previously described by CL Tsai et al. (Identification of multipotent stem/progenitor cells in murine sclera. Invest Ophthalmol Vis Sci 52:5481-5487, 2011). In brief, sclera from the mouse was obtained and was carefully dissected away from limbus and optic disc under a dissection microscope. After retina and choroid tissues were removed, the scleral tissue was cut into small pieces and digested with 1.5 mg/ml collagenase type I (Worthington Biochemical, Lakewood, USA) and 2 mg/ml of dispase (Roche, Basel, Switzerland) in PBS for 1 h at 37° C. to release individual cells. […]\nDifferent concentrations of TGF-β2 were added into 12-wells of SSPCs. After 24 hrs, the images of SSPC morphology were recorded. […]\nas §1, with “assessed. […]” for “assessed.”"}}, "data": [{"molecule": "CN1[C@@H]2CC[C@H]1C[C@@H](OC(=O)C(CO)c1ccccc1)C2", "note": "(stereo partly drawn) [atropine]", "values": [{"measurement": "expression of Col2", "setting": "human SSPC", "result": "suppressed"}, {"measurement": "expression of α-SMA", "setting": "human SSPC", "result": "suppressed"}]}, {"molecule": "O=C(O)Cc1ccccc1Nc1c(Cl)cccc1Cl", "note": "[diclofenac]", "values": [{"measurement": "expression of Col2", "setting": "human SSPC", "result": "suppressed"}, {"measurement": "expression of α-SMA", "setting": "human SSPC", "result": "suppressed"}]}, {"molecule": "O=C(c1ccccc1)c1ccc2n1CCC2C(=O)O", "note": "(stereo not drawn) [ketorolac]", "values": [{"measurement": "expression of Col2", "setting": "human SSPC", "result": "suppressed"}, {"measurement": "expression of α-SMA", "setting": "human SSPC", "result": "suppressed"}, {"measurement": "myopia progression", "setting": "myopic patient", "result": "no myopia progression"}, {"measurement": "expression of Col2", "setting": "SSPCs", "result": "reduced"}, {"measurement": "expression of α-SMA", "setting": "SSPCs", "result": "reduced"}, {"measurement": "level of TNF-α in the choroids", "setting": "TNF-α", "result": "suppressed"}]}, {"molecule": "B1", "values": [{"measurement": "α-SMA gene expression", "setting": "SSPC; p<0.0001", "result": "statistically significant increase"}, {"measurement": "Col2 gene expression", "setting": "SSPC; p=0.011", "result": "statistically significant increase"}]}]}
